Among the data in patent publication US20240327413A1, “NLRP3 MODULATORS” (Zomagen Biosciences Ltd, priority 2021, published 2024) are IC50 values, retold here.

Structures are written as SMILES. Where two headings read alike, the source gives them in different places. Some results are limits rather than exact numbers.

For the assay, the system named is IL-1b. Put plainly: Human Monocyte IL-1b Assay (fresh human whole blood, LPS priming, ATP stimulation, ELISA). The assay is classed as cell-based. As to conditions: read-out: IL-1b (IC50). The method, then: Serially diluted testing compounds were incubated with […] of fresh human whole blood for 0.5 hours. Cells were primed with 100 ng/mL lipopolysaccharide (LPS) for 3.5 hours at 37° C. followed by stimulation with 5 mM ATP for an additional 45 minutes. The concentration of IL-1b concentration in the supernatant was determined with commercially available ELISA kits. Negative controls are wells without stimulation, while positive controls are wells with stimulation but only DMSO without compounds added. After background subtraction, compound treatment wells were then normalized to the positive controls for IC50 calculations.

[1] abbreviates: fresh human whole blood, 100 ng/mL LPS 3.5 hours, then 5 mM ATP 45 minutes, IL-1b in supernatant by ELISA.

`Cc1cc(O)c(-c2nnc(N[C@@H]3CCCN(C)C3)c3ccccc23)cc1F` [Compound 5, (R)-4-fluoro-5-methyl-2-(4-((1-methylpiperidin-3-yl)amino)phthalazin-1-yl)phenol]: under setting [1], the IC50 is less than 300 nM. Still for that read-out and setting: as for `CN1CCC[C@@H](Nc2nnc(-c3ccc4c(c3O)CCC4)c3ccccc23)C1` [Compound 4, (R)-5-(4-((1-methylpiperidin-3-yl)amino)phthalazin-1-yl)-2,3-dihydro-1H-inden-4-ol], the figure is less than 300 nM. `Cc1ccc(-c2nnc(N[C@@H]3CCCN(C)C3)c3cscc23)c(O)c1` [Compound 21, (R)-5-methyl-2-(4-((1-methylpiperidin-3-yl)amino)thieno[3,4-d]pyridazin-1-yl)phenol]: the IC50 under setting [1] was less than 300 nM.

Regarding `Cc1ccc(-c2nnc(N[C@@H]3CCCN(C)C3)c3c2CCC3)c(O)c1` [Compound 8, (R)-5-methyl-2-(4-((1-methylpiperidin-3-yl)amino)-6,7-dihydro-5H-cyclopenta[d]pyridazin-1-yl)phenol], the IC50 under setting [1] was less than 300 nM. For the compound `CCOC(=O)c1cc(C)ccc1-c1nnc(N[C@@H]2CCCN(C)C2)c2ccccc12` [Compound 6, ethyl (R)-5-methyl-2-(4-((1-methylpiperidin-3-yl)amino)phthalazin-1-yl)benzoate], the IC50 under setting [1] lay within 3000 to 10000 nM. On to `CN1CCC[C@@H](Nc2nnc(-c3ccc4c(c3O)CCC4)c3cccn23)C1` [Compound 27, (R)-5-(4-((1-methylpiperidin-3-yl)amino)pyrrolo[1,2-d][1,2,4]triazin-1-yl)-2,3-dihydro-1H-inden-4-ol], for which, under setting [1], the 50% inhibitory concentration (IC50) was 300 to 3000 nM.

In the case of `Cc1cc(O)c(-c2nnc(N[C@@H]3CCCN(C)C3)n3cccc23)c(F)c1` [Compound 14, (R)-3-fluoro-5-methyl-2-(4-((1-methylpiperidin-3-yl)amino)pyrrolo[1,2-d][1,2,4]triazin-1-yl)phenol], the IC50 under setting [1] was less than 300 nM.

In the case of `Cc1ccc(-c2nnc(OC3CCCN(C)C3)c3ccccc23)c(O)c1` (centres unmarked) [Compound 23, 5-methyl-2-(4-((1-methylpiperidin-3-yl)oxy)phthalazin-1-yl)phenol], the IC50 (Homo sapiens) was in the range of 300 to 3000 nM. As to `CN1CCC[C@@H](Nc2nnc(-c3ccc(C(F)(F)F)cc3O)c3cscc23)C1` [Compound 22, (R)-2-(4-((1-methylpiperidin-3-yl)amino)thieno[3,4-d]pyridazin-1-yl)-5-(trifluoromethyl)phenol], the IC50 under setting [1] is less than 300 nM.

Consider `CN1CCC[C@@H](Nc2nnc(-c3ccc(C(F)(F)F)cc3O)c3sccc23)C1` [Compound 20, (R)-2-(4-((1-methylpiperidin-3-yl)amino)thieno[2,3-d]pyridazin-7-yl)-5-(trifluoromethyl)phenol], for which the IC50 under setting [1] was less than 300 nM. Same read-out and setting: the same measure for `Cc1ccc(-c2nnc(N[C@@H]3CCCN(C)C3)c3ccccc23)c(O)c1` [Compound 2, (R)-5-methyl-2-(4-((1-methylpiperidin-3-yl)amino)phthalazin-1-yl)phenol]: less than 300 nM.

Turning to `Cc1ccc(-c2nnc(N[C@@H]3CCCN(C)C3)n3cccc23)c(O)c1` [Compound 24, (R)-5-methyl-2-(4-((1-methylpiperidin-3-yl)amino)pyrrolo[1,2-d][1,2,4]triazin-1-yl)phenol], under setting [1], the IC50 is less than 300 nM. Same read-out and setting: the same measure for `Cc1ccc(-c2nnc(N(C)[C@@H]3CCCN(C)C3)c3ccccc23)c(O)c1` [Compound 12, (R)-5-methyl-2-(4-(methyl(1-methylpiperidin-3-yl)amino)phthalazin-1-yl)phenol]: 300 to 3000 nM. The same measure, in the same setting: as for `Cc1cc(O)c(-c2nnc(N[C@@H]3CCCN(C)C3)n3cccc23)cc1F` [Compound 26, (R)-4-fluoro-5-methyl-2-(4-((1-methylpiperidin-3-yl)amino)pyrrolo[1,2-d][1,2,4]triazin-1-yl)phenol], the figure is 300 to 3000 nM; as for `Cc1cc(C)c(-c2nnc(N[C@@H]3CCCN(C)C3)c3ccccc23)c(O)c1` [Compound 1, 3,5-dimethyl-2-(4-(((R)-1-methylpiperidin-3-yl)amino)phthalazin-1-yl)phenol], less than 300 nM.

Regarding `Cc1ccc(-c2nnc(N[C@@H]3CCCN(C)C3)c3c2CCCC3)c(O)c1` [Compound 11, (R)-5-methyl-2-(4-((1-methylpiperidin-3-yl)amino)-5,6,7,8-tetrahydrophthalazin-1-yl)phenol], the IC50 under setting [1] was less than 300 nM. Same read-out and setting: the same measure for `Cc1cc(C)c(-c2nnc(N[C@@H]3CCCN(C)C3)n3cccc23)c(O)c1` [Compound 13, (R)-3,5-dimethyl-2-(4-((1-methylpiperidin-3-yl)amino)pyrrolo[1,2-d][1,2,4]triazin-1-yl)phenol]: less than 300 nM; for `Cc1cc(C)c(-c2nnc(N[C@@H]3CCCN(C)C3)c3c2CCC3)c(O)c1` [Compound 7, 3,5-dimethyl-2-(4-(((R)-1-methylpiperidin-3-yl)amino)-6,7-dihydro-5H-cyclopenta[d]pyridazin-1-yl)phenol]: less than 300 nM; for `Cc1ccc(-c2nnc(N[C@@H]3CCCN(C)C3)c3c2CCC3)c(O)c1F` [Compound 10, (R)-2-fluoro-3-methyl-6-(4-((1-methylpiperidin-3-yl)amino)-6,7-dihydro-5H-cyclopenta[d]pyridazin-1-yl)phenol]: less than 300 nM. The same measure, in the same setting: the same measure for `CN1CCC[C@@H](Nc2nnc(-c3ccc(C(F)(F)F)cc3O)c3ccsc23)C1` [Compound 19, (R)-2-(7-((1-methylpiperidin-3-yl)amino)thieno[2,3-d]pyridazin-4-yl)-5-(trifluoromethyl)phenol]: less than 300 nM.
